The term inhibition denotes how much of the control response was suppressed. The logD is lipophilicity at a set pH, counting ionised and neutral species. Lower therefore signals a more hydrophilic compound.

The text below walks through data of paper PMC9583322, “Vicinal Diaryl-Substituted Isoxazole and Pyrazole Derivatives with In Vitro Growth Inhibitory and In Vivo Antitumor Activity” (ACS Omega, 2022).

Data set [1] has as its target CYP2D6 (Homo sapiens, UniProt P10635). The experiment in a line: CYP inhibition. In kind it is in vitro ADME. Conditions: read-out: Inhibition of human CYP 2D6. The procedure: (§1) All chemicals were purchased from different suppliers such as Sigma-Aldrich Chemicals (Sigma-Aldrich Corp., St. Louis, MO), Merck Chemicals (Merck KGaA, Darmstadt, Germany), and ABCR (abcr GmbH, Karlsruhe, Germany). THF was dried from benzophenone-sodium. ^1H and ^13C NMR spectra were recorded in CDCl3 or DMSO-d6 on a Varian Mercury 400 MHz spectrometer using tetramethylsilane as the internal standard. Coupling constants were reported as Hertz and all chemical shifts were recorded as δ (ppm). High-resolution mass spectra data (HRMS) were collected using Waters LCT Premier XE Mass Spectrometer operating in ESI(+) or ESI(−) method, also coupled to an AQUITY Ultra Performance Liquid Chromatography system (Waters Corporation) using a UV detector monitoring at 254 nm. Purity for all final compounds was >95%, according to the UPLC-MS method using a water/MeCN solvent gradient containing 0.1% formic acid (1%/90%); flow rate: 0.3 mL/min, column: Aquity BEH C18 column (2.1 × 100 mm^2, 1.7 mm). All microwave irradiation reactions were carried out in a Biotage Initiator + microwave apparatus with Biotage sealed microwave vials. Flash chromatography was performed on a Combiflash Rf Automatic Flash Chromatography System with RediSep silica gel columns (12, 24, and 40 g) (Teledyne-Isco, Lincoln, NE) or Reveleris PREP Purification System (Buchi, New Castle, DE). Preparative chromatography was performed on Buchi US15C18HQ-250/212-C18 silica gel columns with the following devices; Reveleris PREP Purification System or PuriFlash 4250 System (Interchim, Montluçon, France). Melting points of the compounds were determined using the SMP50 automated melting point apparatus (Stuart, Staffordshire, ST15 OSA, U.K.). The in vitro ADME and in vivo mouse PK studies were conducted at Syngene International Ltd., Bangalore, India. General synthetic procedures (Methods 1–9) and experimental data for all intermediate compounds can be found in the Supporting Information.

Data set [2] deals with CYP2C9 (Homo sapiens, UniProt P11712). The experiment in a line: CYP inhibition. The class given is in vitro ADME. The following applies: read-out: Inhibition of human CYP 2C9. On the procedure: as §1
Data set [3] addresses CYP3A4 (Homo sapiens, UniProt P08684). The data set is described as follows: CYP inhibition. The class given is in vitro ADME. Conditions: read-out: Inhibition of human CYP 3A4. The procedure:
as §1

Data set [4] can be described thus: Metabolic stability in human microsomes. In kind it is in vitro ADME. The following applies: after 45 min incubation. On the procedure: as §1, with “Flash chromatography was performed on a Combiflash Rf Automatic Flash Chromatography System with RediSep silica gel columns (12, 24, and 40 g) (Teledyne-Isco, Lincoln, NE) or Reveleris PREP Purification System (Buchi, New Castle, DE). Preparative chromatography was performed on Buchi US15C18HQ-250/212-C18 silica gel columns with the following devices; Reveleris PREP Purification System or PuriFlash 4250 System (Interchim, Montluçon, France).” left out, “The in vitro ADME and in vivo mouse PK studies were conducted at Syngene International Ltd., Bangalore, India. General synthetic procedures (Methods 1–9) and experimental data for all intermediate compounds can be found in the Supporting Information.” left out

A short description of data set [5]: logD7.4. Conditions: pH 7.4. In kind it is physicochemical. The procedure: as §1, with “Flash chromatography was performed on a Combiflash Rf Automatic Flash Chromatography System with RediSep silica gel columns (12, 24, and 40 g) (Teledyne-Isco, Lincoln, NE) or Reveleris PREP Purification System (Buchi, New Castle, DE). Preparative chromatography was performed on Buchi US15C18HQ-250/212-C18 silica gel columns with the following devices; Reveleris PREP Purification System or PuriFlash 4250 System (Interchim, Montluçon, France).” left out, “The in vitro ADME and in vivo mouse PK studies were conducted at Syngene International Ltd., Bangalore, India. General synthetic procedures (Methods 1–9) and experimental data for all intermediate compounds can be found in the Supporting Information.” left out

A short description of data set [6]: Solubility at the physiological pH. In kind it is physicochemical. The procedure: as §1, with “Flash chromatography was performed on a Combiflash Rf Automatic Flash Chromatography System with RediSep silica gel columns (12, 24, and 40 g) (Teledyne-Isco, Lincoln, NE) or Reveleris PREP Purification System (Buchi, New Castle, DE). Preparative chromatography was performed on Buchi US15C18HQ-250/212-C18 silica gel columns with the following devices; Reveleris PREP Purification System or PuriFlash 4250 System (Interchim, Montluçon, France).” left out, “The in vitro ADME and in vivo mouse PK studies were conducted at Syngene International Ltd., Bangalore, India. General synthetic procedures (Methods 1–9) and experimental data for all intermediate compounds can be found in the Supporting Information.” left out

For data set [7], the system named is plasma protein. The data set is described as follows: Plasma protein binding. The class given is in vitro ADME. On the procedure:
as §1, with “Flash chromatography was performed on a Combiflash Rf Automatic Flash Chromatography System with RediSep silica gel columns (12, 24, and 40 g) (Teledyne-Isco, Lincoln, NE) or Reveleris PREP Purification System (Buchi, New Castle, DE). Preparative chromatography was performed on Buchi US15C18HQ-250/212-C18 silica gel columns with the following devices; Reveleris PREP Purification System or PuriFlash 4250 System (Interchim, Montluçon, France).” left out, “The in vitro ADME and in vivo mouse PK studies were conducted at Syngene International Ltd., Bangalore, India. General synthetic procedures (Methods 1–9) and experimental data for all intermediate compounds can be found in the Supporting Information.” left out

CYP2D6, sequence (P10635 whole entry): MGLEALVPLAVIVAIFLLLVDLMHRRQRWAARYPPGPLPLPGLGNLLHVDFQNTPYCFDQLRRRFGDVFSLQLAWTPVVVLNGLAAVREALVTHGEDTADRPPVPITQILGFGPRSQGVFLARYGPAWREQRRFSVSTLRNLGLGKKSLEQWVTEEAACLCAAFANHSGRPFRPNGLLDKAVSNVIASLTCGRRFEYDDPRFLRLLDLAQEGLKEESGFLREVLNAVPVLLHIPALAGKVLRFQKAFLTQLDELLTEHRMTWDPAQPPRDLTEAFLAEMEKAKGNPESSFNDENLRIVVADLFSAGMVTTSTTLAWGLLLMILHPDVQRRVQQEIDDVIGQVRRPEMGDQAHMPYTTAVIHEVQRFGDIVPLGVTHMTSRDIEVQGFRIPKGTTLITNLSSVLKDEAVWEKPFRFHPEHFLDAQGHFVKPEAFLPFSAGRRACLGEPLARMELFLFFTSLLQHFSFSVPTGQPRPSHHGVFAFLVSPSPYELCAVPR
CYP3A4, sequence (P08684 whole entry): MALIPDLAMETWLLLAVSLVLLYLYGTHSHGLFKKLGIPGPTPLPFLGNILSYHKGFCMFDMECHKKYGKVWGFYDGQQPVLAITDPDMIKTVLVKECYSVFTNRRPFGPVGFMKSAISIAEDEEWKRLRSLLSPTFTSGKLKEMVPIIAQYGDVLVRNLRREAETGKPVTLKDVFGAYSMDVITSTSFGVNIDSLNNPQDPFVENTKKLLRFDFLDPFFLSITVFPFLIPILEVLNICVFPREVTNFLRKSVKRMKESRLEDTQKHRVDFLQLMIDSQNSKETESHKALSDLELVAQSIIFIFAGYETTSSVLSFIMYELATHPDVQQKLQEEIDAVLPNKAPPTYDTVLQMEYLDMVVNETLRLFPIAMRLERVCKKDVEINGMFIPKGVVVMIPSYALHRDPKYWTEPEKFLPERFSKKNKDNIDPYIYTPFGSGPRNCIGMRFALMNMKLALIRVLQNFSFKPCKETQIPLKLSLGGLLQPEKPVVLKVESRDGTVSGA
CYP2C9, sequence (P11712 whole entry): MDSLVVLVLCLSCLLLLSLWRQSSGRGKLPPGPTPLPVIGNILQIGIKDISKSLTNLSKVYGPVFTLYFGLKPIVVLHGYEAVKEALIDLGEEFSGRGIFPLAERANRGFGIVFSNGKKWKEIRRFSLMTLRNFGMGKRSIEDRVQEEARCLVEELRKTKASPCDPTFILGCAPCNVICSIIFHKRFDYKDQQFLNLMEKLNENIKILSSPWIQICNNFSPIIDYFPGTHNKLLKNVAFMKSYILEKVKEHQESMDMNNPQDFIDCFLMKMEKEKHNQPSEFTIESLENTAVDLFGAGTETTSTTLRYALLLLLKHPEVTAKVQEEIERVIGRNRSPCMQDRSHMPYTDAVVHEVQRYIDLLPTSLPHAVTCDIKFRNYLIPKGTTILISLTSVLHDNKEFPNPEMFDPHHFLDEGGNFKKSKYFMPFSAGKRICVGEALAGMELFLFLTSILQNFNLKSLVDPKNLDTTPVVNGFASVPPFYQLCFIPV

With `Cc1ccccc1COc1ccc(-c2ccnn2-c2ccc(Cl)cc2)cc1` [compound 85, 1-(4-Chlorophenyl)-5-(4-((2-methylbenzyl)oxy)phenyl)-1H-pyrazole], the results for the inhibition at 10 µM in data set [1], in data set [2] and in data set [3] were 22.2%, 7.3% and 0%, respectively. In addition, in data set [4], the “Metabolic stability, remaining” value came to 55%. In data set [5], this molecule returned a logD of 6.64. The Solubility result in data set [6] is given as “sparingly soluble”. Also, the plasma protein-bound in data set [7] is given as 99.9%.
